# From PubChem BioAssay (NCI)
#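 The compound was tested at five concentrations on cells cultured in 96-well plates, with a 48-hour exposure period. The concentration for 50% growth inhibition is given as GI50. At the TGI there is no net growth.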
# Assays:
# Test in all cases: NCI anticancer screen, dose series, 48 h
# IGROV1 ovarian = test system: IGROV1 ovarian
# UACC-62 melanoma = test system: UACC-62 melanoma
# SF-539 CNS = test system: SF-539 CNS
# MDA-MB-435 = test system: MDA-MB-435
# SR leukemia = test system: SR leukemia
# EKVX NSCLC = test system: EKVX NSCLC
# NCI/ADR-RES ovarian = test system: NCI/ADR-RES ovarian
# MALME-3M melanoma = test system: MALME-3M melanoma
# 786-0 renal = test system: 786-0 renal
# NCI-H460 lung = test system: NCI-H460 lung
# ACHN renal = test system: ACHN renal
# PC-3 prostate = test system: PC-3 prostate
# SK-MEL-2 melanoma = test system: SK-MEL-2 melanoma
# TK-10 renal = test system: TK-10 renal
# MOLT-4 leukemia = test system: MOLT-4 leukemia
# SN12C renal = test system: SN12C renal
# HCC-2998 colon = test system: HCC-2998 colon
# NCI-H522 lung = test system: NCI-H522 lung
# M14 melanoma = test system: M14 melanoma
# HL-60(TB) leukemia = test system: HL-60(TB) leukemia
# UO-31 renal = test system: UO-31 renal
# SK-OV-3 ovarian = test system: SK-OV-3 ovarian
# KM12 colon = test system: KM12 colon
# OVCAR-5 ovarian = test system: OVCAR-5 ovarian
# CAKI-1 renal = test system: CAKI-1 renal
# SF-295 CNS = test system: SF-295 CNS
# SF-268 CNS = test system: SF-268 CNS
# NCI-H226 lung = test system: NCI-H226 lung
# A498 renal = test system: A498 renal
# MDA-MB-231 breast = test system: MDA-MB-231 breast
# HOP-62 NSCLC = test system: HOP-62 NSCLC
# MCF7 breast = test system: MCF7 breast
# OVCAR-4 ovarian = test system: OVCAR-4 ovarian
# K-562 leukemia = test system: K-562 leukemia
# OVCAR-8 ovarian = test system: OVCAR-8 ovarian
# HCT-116 colon = test system: HCT-116 colon
# HCT-15 colon = test system: HCT-15 colon
# COLO 205 colon = test system: COLO 205 colon
# A549 NSCLC = test system: A549 NSCLC
# HOP-92 NSCLC = test system: HOP-92 NSCLC
# RXF 393 renal = test system: RXF 393 renal
# NCI-H23 lung = test system: NCI-H23 lung
# SK-MEL-28 melanoma = test system: SK-MEL-28 melanoma
# BT-549 breast = test system: BT-549 breast
# SK-MEL-5 melanoma = test system: SK-MEL-5 melanoma
# HS 578T breast = test system: HS 578T breast
# RPMI-8226 leukemia = test system: RPMI-8226 leukemia
# OVCAR-3 ovarian = test system: OVCAR-3 ovarian
# SNB-75 CNS = test system: SNB-75 CNS
# CCRF-CEM leukemia = test system: CCRF-CEM leukemia
# LOX IMVI melanoma = test system: LOX IMVI melanoma
# UACC-257 melanoma = test system: UACC-257 melanoma
# U251 CNS = test system: U251 CNS
# HT29 colon = test system: HT29 colon
# DU-145 prostate = test system: DU-145 prostate
# SW-620 colon = test system: SW-620 colon
# SNB-19 CNS = test system: SNB-19 CNS
structure (smiles),measurement,setting,value
CC[C@]1(O)C[C@@H]2CN(CCc3c([nH]c4ccccc34)[C@@](C(=O)OC)(c3cc4c(cc3OC)N(C)[C@H]3[C@@](O)(C(N)=O)[C@H](O)[C@]5(CC)[C@@H]6C[C@@H]6CN6CC[C@]43[C@@H]65)C2)C1,GI50,IGROV1 ovarian,0.0172 µM
same,TGI,IGROV1 ovarian,> 33.3 µM
same,GI50,UACC-62 melanoma,< 0.00333 µM
same,TGI,UACC-62 melanoma,> 33.3 µM
same,GI50,SF-539 CNS,< 0.00333 µM
same,TGI,SF-539 CNS,0.0143 µM
same,GI50,MDA-MB-435,< 0.00333 µM
same,TGI,MDA-MB-435,< 0.00333 µM
same,GI50,SR leukemia,< 0.00333 µM
same,TGI,SR leukemia,10.2 µM
same,GI50,EKVX NSCLC,0.0624 µM
same,TGI,EKVX NSCLC,> 33.3 µM
same,GI50,NCI/ADR-RES ovarian,0.745 µM
same,TGI,NCI/ADR-RES ovarian,> 9.84 µM
same,GI50,MALME-3M melanoma,4.9 µM
same,TGI,MALME-3M melanoma,32.1 µM
same,GI50,786-0 renal,0.0247 µM
same,TGI,786-0 renal,> 19.3 µM
same,GI50,NCI-H460 lung,0.00366 µM
same,TGI,NCI-H460 lung,> 33.3 µM
same,GI50,ACHN renal,0.161 µM
same,TGI,ACHN renal,> 33.3 µM
same,GI50,PC-3 prostate,< 0.00333 µM
same,TGI,PC-3 prostate,> 33.3 µM
same,GI50,SK-MEL-2 melanoma,< 0.00333 µM
same,GI50,TK-10 renal,13 µM
same,TGI,TK-10 renal,> 33.3 µM
same,GI50,MOLT-4 leukemia,< 0.00333 µM
same,TGI,MOLT-4 leukemia,> 33.3 µM
same,GI50,SN12C renal,0.0373 µM
same,TGI,SN12C renal,> 33.3 µM
same,GI50,HCC-2998 colon,0.00413 µM
same,TGI,HCC-2998 colon,> 29 µM
same,GI50,NCI-H522 lung,< 0.00333 µM
same,TGI,NCI-H522 lung,< 0.00333 µM
same,GI50,M14 melanoma,0.00605 µM
same,TGI,M14 melanoma,0.956 µM
same,GI50,HL-60(TB) leukemia,< 0.00333 µM
same,TGI,HL-60(TB) leukemia,0.013 µM
same,GI50,UO-31 renal,0.548 µM
same,TGI,UO-31 renal,> 33.3 µM
same,GI50,SK-OV-3 ovarian,< 0.00333 µM
same,TGI,SK-OV-3 ovarian,> 33.3 µM
same,GI50,KM12 colon,< 0.00333 µM
same,TGI,KM12 colon,> 29.8 µM
same,GI50,OVCAR-5 ovarian,0.0912 µM
same,TGI,OVCAR-5 ovarian,> 33.3 µM
same,GI50,CAKI-1 renal,1.12 µM
same,TGI,CAKI-1 renal,> 33.3 µM
same,GI50,SF-295 CNS,0.00441 µM
same,TGI,SF-295 CNS,2.09 µM
same,GI50,SF-268 CNS,0.00352 µM
same,TGI,SF-268 CNS,> 33.3 µM
same,GI50,NCI-H226 lung,0.0382 µM
same,TGI,NCI-H226 lung,> 23.7 µM
same,GI50,A498 renal,0.00466 µM
same,TGI,A498 renal,0.243 µM
same,GI50,MDA-MB-231 breast,0.00548 µM
same,TGI,MDA-MB-231 breast,> 16.2 µM
same,GI50,HOP-62 NSCLC,0.00694 µM
same,TGI,HOP-62 NSCLC,> 33.3 µM
same,GI50,MCF7 breast,< 0.00333 µM
same,TGI,MCF7 breast,> 18.2 µM
same,GI50,OVCAR-4 ovarian,0.0931 µM
same,TGI,OVCAR-4 ovarian,> 33.3 µM
same,GI50,K-562 leukemia,< 0.00333 µM
same,TGI,K-562 leukemia,> 33.3 µM
same,GI50,OVCAR-8 ovarian,0.0143 µM
same,TGI,OVCAR-8 ovarian,> 33.3 µM
same,GI50,HCT-116 colon,< 0.00333 µM
same,GI50,HCT-15 colon,0.148 µM
same,TGI,HCT-15 colon,> 21.4 µM
same,GI50,COLO 205 colon,< 0.00333 µM
same,TGI,COLO 205 colon,0.00878 µM
same,GI50,A549 NSCLC,0.0128 µM
same,TGI,A549 NSCLC,> 33.3 µM
same,GI50,HOP-92 NSCLC,< 0.00333 µM
same,TGI,HOP-92 NSCLC,1.82 µM
same,GI50,RXF 393 renal,0.0153 µM
same,TGI,RXF 393 renal,> 33.3 µM
same,GI50,NCI-H23 lung,< 0.00333 µM
same,TGI,NCI-H23 lung,> 33.3 µM
same,GI50,SK-MEL-28 melanoma,6.47 µM
same,TGI,SK-MEL-28 melanoma,> 33.3 µM
same,GI50,BT-549 breast,< 0.00333 µM
same,TGI,BT-549 breast,0.708 µM
same,GI50,SK-MEL-5 melanoma,< 0.00333 µM
same,TGI,SK-MEL-5 melanoma,0.0546 µM
same,GI50,HS 578T breast,< 0.00333 µM
same,TGI,HS 578T breast,> 21.3 µM
same,GI50,RPMI-8226 leukemia,< 0.00333 µM
same,TGI,RPMI-8226 leukemia,> 28.7 µM
same,GI50,OVCAR-3 ovarian,< 0.00333 µM
same,TGI,OVCAR-3 ovarian,0.0818 µM
same,GI50,SNB-75 CNS,< 0.00333 µM
same,TGI,SNB-75 CNS,20.6 µM
same,GI50,CCRF-CEM leukemia,< 0.00333 µM
same,TGI,CCRF-CEM leukemia,> 28.8 µM
same,GI50,LOX IMVI melanoma,< 0.00333 µM
same,TGI,LOX IMVI melanoma,> 33.3 µM
same,GI50,UACC-257 melanoma,> 33.3 µM
same,TGI,UACC-257 melanoma,> 33.3 µM
same,GI50,U251 CNS,< 0.00333 µM
same,TGI,U251 CNS,> 33.3 µM
same,GI50,HT29 colon,< 0.00333 µM
same,GI50,DU-145 prostate,< 0.00333 µM
same,TGI,DU-145 prostate,0.795 µM
same,GI50,SW-620 colon,< 0.00333 µM
same,TGI,SW-620 colon,> 33.3 µM
same,GI50,SNB-19 CNS,< 0.00333 µM
same,TGI,SNB-19 CNS,> 33.3 µM
